The supplement of paper PMC4862054

Columns and labels:
Conditions in all cases: incubation time: 72 h
BT-474 [1] = assay: drug sensitivity score (DSS), CellTox Green (DSS (AUC-based score)); higher = stronger drug effect (viability inhibition or cytotoxicity); extreme values may be limits of the assay
Method in brief: (§1)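 The area under the fitted dose-response curve was used to calculate the drug sensitivity score. Cells from breast cancer lines were incubated for 72 h in 384-well plates with compound at 5 concentrations spaced 10-fold over a 10,000-fold range specific to each compound. Plates were read for CellTox Green and then CellTiter-Glo, and normalised to 0.1 % DMSO and a positive kill control.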

CAL-120 = assay: as above
Method in brief: as §1

CAL-148 = assay: as above
Method in brief: as §1

CAL-51 = assay: as above
Method in brief: as §1

CAL-85-1 = assay: as above
Method in brief: as §1

DU-4475 [2] = assay: as above
Method in brief: as §1

HCC1599 [3] = assay: as above
Method in brief: as §1

HCC1937 = assay: as above
Method in brief: as §1

HDQ-P1 = assay: as above
Method in brief: as §1

Hs578T = assay: as above
Method in brief: as §1

MCF-10A = assay: as above
Method in brief: as §1

MDA-MB-231 [4] = assay: as above
Method in brief: as §1

MDA-MB-436 [5] = assay: as above
Method in brief: as §1

MDA-MB-453 [6] = assay: as above
Method in brief: as §1

MDA-MB-468 [7] = assay: as above
Method in brief: as §1

MFM-223 [8] = assay: as above
Method in brief: as §1

BT-549 [9] = assay: as above
Method in brief: as §1

HCC1143 = assay: as above
Method in brief: as §1

BT-474 [10] = assay: normalised response (% of control), CellTox Green; higher = less cell death (100 = DMSO, 0 = benzethonium chloride kill control)
Method in brief: (§2)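 A 20 µl suspension of breast cancer cells was seeded into each well of 384-well plates containing compound at 5 concentrations in 10-fold steps over a compound-specific 10,000-fold range. After 72 h incubation, CellTox Green fluorescence (485/520 nm) was read first, and CellTiter-Glo luminescence was read after 10 min at room temperature. Each plate was normalised against 0.1 % DMSO (100) and a positive kill control (0), and each value is the normalised signal at one concentration.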

BT-549 [11] = assay: as above
Method in brief: as §2

DU-4475 [12] = assay: as above
Method in brief: as §2

HCC1599 [13] = assay: as above
Method in brief: as §2

MDA-MB-231 [14] = assay: as above
Method in brief: as §2

MDA-MB-436 [15] = assay: as above
Method in brief: as §2

MDA-MB-453 [16] = assay: as above
Method in brief: as §2

MDA-MB-468 [17] = assay: as above
Method in brief: as §2

MFM-223 [18] = assay: as above
Method in brief: as §2

Compound	drug sensitivity score (BT-474 [1])	drug sensitivity score (CAL-120)	drug sensitivity score (CAL-148)	drug sensitivity score (CAL-51)	drug sensitivity score (CAL-85-1)	drug sensitivity score (DU-4475 [2])	drug sensitivity score (HCC1599 [3])	drug sensitivity score (HCC1937)	drug sensitivity score (HDQ-P1)	drug sensitivity score (Hs578T)	drug sensitivity score (MCF-10A)	drug sensitivity score (MDA-MB-231 [4])	drug sensitivity score (MDA-MB-436 [5])	drug sensitivity score (MDA-MB-453 [6])	drug sensitivity score (MDA-MB-468 [7])	drug sensitivity score (MFM-223 [8])	drug sensitivity score (BT-549 [9])	drug sensitivity score (HCC1143)	normalised response (BT-474 [10]) [%]	normalised response (BT-549 [11]) [%]	normalised response (DU-4475 [12]) [%]	normalised response (HCC1599 [13]) [%]	normalised response (MDA-MB-231 [14]) [%]	normalised response (MDA-MB-436 [15]) [%]	normalised response (MDA-MB-453 [16]) [%]	normalised response (MDA-MB-468 [17]) [%]	normalised response (MFM-223 [18]) [%]
CN(C)C(=N)NC(=N)N [Metformin]	0	0	0	8.43	0	0	1.75	0	0	4.84	0	0	0	0	14.1	0											
CO[C@@H]1[C@H](N(C)C(=O)c2ccccc2)C[C@H]2O[C@]1(C)n1c3ccccc3c3c4c(c5c6ccccc6n2c5c31)C(=O)NC4 [Midostaurin]	0.973	3.96		29.9	0	0	0	0	1.96	11.5	0	7.87	0	0	17	0	12.6	0									
CC1(C)CCC(c2ccc(Cl)cc2)=C(CN2CCN(c3ccc(C(=O)NS(=O)(=O)c4ccc(N[C@H](CCN5CCOCC5)CSc5ccccc5)c(S(=O)(=O)C(F)(F)F)c4)cc3)CC2)C1 [Navitoclax]	2.28	10.9	4.49	8.56	3.45	0	0	0	17.2	0		21.5	0	0	6.68	1.23	0	0									
CC1(C)CCC(c2ccc(Cl)cc2)=C(CN2CCN(c3ccc(C(=O)NS(=O)(=O)c4ccc(N[C@H](CCN5CCOCC5)CSc5ccccc5)c(S(=O)(=O)C(F)(F)F)c4)cc3)CC2)C1 [Navitoclax] (10000 nM)																			70.3	97.3	89.8	103	-60.4	64.8	86.5	24.9	66.2
Cc1cn(-c2cc(NC(=O)c3ccc(C)c(Nc4nccc(-c5cccnc5)n4)c3)cc(C(F)(F)F)c2)cn1 [Nilotinib] (1000 nM)																			88.8	85.9	101	101	68.5	82.2	106	111	103
Cc1cn(-c2cc(NC(=O)c3ccc(C)c(Nc4nccc(-c5cccnc5)n4)c3)cc(C(F)(F)F)c2)cn1 [Nilotinib] (10000 nM)																			100	80.7	103	105	84.3	108	102	117	104
C=CCN(/C=C1/C(=O)O[C@H](COC)[C@@]2(C)C1=C(O)C(=O)C1=C2[C@H](OC(C)=O)C[C@]2(C)C(=O)CC[C@@H]12)CC=C [Sonolisib]	0	0	0	0	2.28	0	0	0	0	0	0	0	0	0		0	0	0									
CC(C)n1cnc2c(NCCc3ccc(O)cc3)nc(-c3csc4ccccc34)nc21 [StemRegenin 1]	1.03	0	0	0	0	0	0	0	0		0	0	0	0	0	5.31	0	0									
O=C(CCCCCCC(=O)Nc1ccccc1)NO [Vorinostat] (1000 nM)																			96.8	115	94.5	91.8	83.2	73.5	93.9	103	97.3
O=C(CCCCCCC(=O)Nc1ccccc1)NO [Vorinostat] (10000 nM)																			32.6	74.8	76	81.9	-55.1	77.5	82.7	25.7	80.3
